Columns and labels:
[1] = system: Hordeum vulgare (winter barley); assay: Postemergence herbicidal activity of mixtures in cereal crops; format: in vivo; conditions: after 3 weeks
Description: (§1) Seeds of the desired test plant species were planted and reared as described in “Evaluation of Postemergence Herbicidal Safening in Cereal Crops” (section 37).
(§2) Treatments consisted of compound (as listed in Tables 6 and 7), fluroxypyr methylheptyl ester (MHE), and clopyralid monoethanolamine (MEA) salt alone and in combination. Weighed amounts were placed in 25 mL glass vials and dissolved in a volume of 97:3 v/v acetone/DMSO to obtain 4.5 mg ai/mL stock solutions. […] The concentrated stock solutions were diluted to 1.5 mg ai/mL with the addition of 2 volumes of an aqueous mixture containing acetone, water, isopropyl alcohol, DMSO, Agri-dex crop oil concentrate, and Triton® X-77 surfactant in a 64.7:26.0:6.7:2.0:0.7:0.01 v/v ratio. A dilution solution was prepared by mixing 1 volume of 97:3 v/v acetone/DMSO and 2 volumes of an aqueous mixture containing acetone, water, isopropyl alcohol, DMSO, Agri-dex crop oil concentrate, and Triton® X-77 surfactant in a 64.7:26.0:6.7:2.0:0.7:0.01 v/v ratio. Compound requirements are based upon a 12 mL application volume at a rate of 187 L/ha. Spray solutions of fluroxypyr MHE, clopyralid MEA, and experimental compound mixtures were prepared by adding the stock solutions to the appropriate amount of dilution solution to form 12 mL spray solution with active ingredients in two- and three-way combinations. Formulated compounds were applied to the plant material with an overhead Mandel track sprayer equipped with a 8002E nozzles calibrated to deliver 187 L/ha over an application area of 0.503 square meters at a spray height of 18 inches (43 cm) above average plant canope. Control plants were sprayed in the same manner with the solvent blank.
(§3) The treated plants and control plants were placed in a greenhouse as described above and watered by sub-irrigation to prevent wash-off of the test compounds. After 3 weeks the condition of the test plants as compared with that of the control plants was determined visually and scored on a scale of 0 to 100 percent where 0 corresponds to no injury and 100 corresponds to complete kill.
(§4) Colby's equation was used to determine the herbicidal effects expected from the mixtures (Colby, S. R. 1967. Calculation of the synergistic and antagonistic response of herbicide combinations. Weeds 15:20-22.).
(§5) The following equation was used to calculate the expected activity of mixtures containing two active ingredients, A and B: Expected=A+B−(A×B/100) • A=observed efficacy of active ingredient A at the same concentration as used in the mixture. • B=observed efficacy of active ingredient B at the same concentration as used in the mixture.
(§6) The following equation was used to calculate the expected activity of mixtures containing three active ingredients, A, B, and C: Expected=A+B+C−(A×B+B×C+A×C)/100+(A×B×C)/10000 • A=observed efficacy of active ingredient A at the same concentration as used in the mixture. • B=observed efficacy of active ingredient B at the same concentration as used in the mixture. • C=observed efficacy of active ingredient C at the same concentration as used in the mixture.

[2] = system: Matricaria chamomilla; assay: as above; format: in vivo; conditions: after 3 weeks
Description: as §1, §2, §3, §4, §5, §6

[3] = system: Triticum aestivum (spring wheat); assay: as above; format: in vivo; conditions: after 3 weeks
Description: as §1, §2, §3, §4, §5, §6

[4] = system: lambsquarter (Chenopodium album); assay: Postemergence herbicidal activity; format: in vivo; conditions: Chenopodium album, post-emergence, 336 h, post-emergent, 140 g ai/ha, after 14 days; read-out: % Control CHEAL
Outline: (§7)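 Compounds were applied postemergence by track sprayer delivering 187 L/ha, using a mixed organic/aqueous carrier containing crop oil concentrate and surfactant; solvent-blank sprays served as controls. Test plants were at the first to second true leaf stage after 7-21 days' greenhouse growth, were sub-irrigated after treatment, and were evaluated by probit analysis.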

[5] = system: redroot pigweed (Amaranthus retroflexus); assay: Postemergence herbicidal activity; format: in vivo; conditions: Amaranthus retroflexus, post-emergence, 336 h, post-emergent, 140 g ai/ha, after 14 days; read-out: % Control AMARE
Outline: as §7

[6] = system: velvetleaf (Abutilon theophrasti); assay: Postemergence herbicidal activity; format: in vivo; conditions: Abutilon theophrasti, post-emergence, 336 h, post-emergent, 140 g ai/ha, after 14 days; read-out: % Control ABUTH
Outline: as §7

[7] = system: lambsquarter (Chenopodium album); assay: Preemergence herbicidal activity; format: in vivo; conditions: Chenopodium album, pre-emergence, 480 h; pre-emergent, 140 g ai/ha, after 20-22 days; read-out: % Control CHEAL
Outline: (§8)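 Seeds sown in 70:30 loam (pH about 8.1, about 1.5% organic matter) and sand mix, then sprayed preemergence at 187 L/ha with a track sprayer; controls received solvent blank. Pots kept in greenhouse, about 15 h photoperiod, about 23-29° C. day and 22-28° C. night, top-irrigated.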

[8] = system: redroot pigweed (Amaranthus retroflexus); assay: Preemergence herbicidal activity; format: in vivo; conditions: Amaranthus retroflexus, pre-emergence, 480 h; pre-emergent, 140 g ai/ha, after 20-22 days; read-out: % Control AMARE
Outline: as §8

[9] = system: velvetleaf (Abutilon theophrasti); assay: Preemergence herbicidal activity; format: in vivo; conditions: Abutilon theophrasti, pre-emergence, 480 h; pre-emergent, 140 g ai/ha, after 20-22 days; read-out: % Control ABUTH
Outline: as §8

[10] = system: Cyperus difformis; assay: Herbicidal activity in transplanted paddy rice; format: in vivo; conditions: Cyperus difformis, 504 h; paddy water application, 35 g ai/ha, after 3 weeks; read-out: % Control CYPDI
Outline: (§9)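 Rice seedlings transplanted at second to third leaf stage and weeds from seed were grown in flooded mud pots in a greenhouse (~29/26 °C, 14 h photoperiod). At second or third true leaf stage, acetone stock solutions were injected into the paddy water at the high rate and ½× to 1/16× dilutions. Solvent-blank controls.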

[11] = system: Echinochloa crus-galli; assay: Herbicidal activity in transplanted paddy rice; format: in vivo; conditions: Echinochloa crus-galli, 504 h; paddy water application, 35 g ai/ha, after 3 weeks; read-out: % Control ECHCG
Outline: as §9

[12] = system: Monochoria vaginalis; assay: Herbicidal activity in transplanted paddy rice; format: in vivo; conditions: Pontederia vaginalis, 504 h; paddy water application, 35 g ai/ha, after 3 weeks; read-out: % Control MOOVA
Outline: as §9

[13] = system: Scirpus juncoides; assay: Herbicidal activity in transplanted paddy rice; format: in vivo; conditions: Schoenoplectiella juncoides, 504 h; paddy water application, 35 g ai/ha, after 3 weeks; read-out: % Control SCPJU
Outline: as §9

[14] = system: rice (Orysa sativa var. Japonica); assay: Herbicidal activity in transplanted paddy rice; format: in vivo; conditions: Oryza sativa, 504 h; transplant rice (crop), paddy water application, 35 g ai/ha, after 3 weeks
Outline: as §9

[15] = system: Galium aparine; assay: Postemergence herbicidal activity in cereal crops; format: in vivo; conditions: Galium aparine, post-emergence, 480 h, post-emergent, 17.5 g ai/ha, after 20-22 days; read-out: % Control GALAP
Outline: (§10)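 Greenhouse plants (about 18 °C day/17 °C night, ~14 h photoperiod) were grown 7-36 days to the second or third true leaf stage. They were then sprayed overhead at 187 L/ha with compound in acetone/water/isopropanol/DMSO/crop oil/Triton X-77 carrier. Blank-sprayed plants served as controls, and watering was by sub-irrigation to avoid wash-off.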

[16] = system: Lamium purpureum; assay: Postemergence herbicidal activity in cereal crops; format: in vivo; conditions: Lamium purpureum, post-emergence, 480 h; post-emergent, 17.5 g ai/ha, after 20-22 days; read-out: % Control LAMPU
Outline: as §10

[17] = system: Papaver rhoeas; assay: Postemergence herbicidal activity in cereal crops; format: in vivo; conditions: Papaver rhoeas, post-emergence, 480 h, post-emergent, 17.5 g ai/ha, after 20-22 days; read-out: % Control PAPRH
Outline: as §10

[18] = system: Veronica persica; assay: Postemergence herbicidal activity in cereal crops; format: in vivo; conditions: Veronica persica, post-emergence, 480 h, post-emergent, 17.5 g ai/ha, after 20-22 days; read-out: % Control VERPE
Outline: as §10

[19] = system: barley (Hordeum vulare); assay: Postemergence herbicidal activity in cereal crops; format: in vivo; conditions: Hordeum, post-emergence, 480 h; crop, post-emergent, 17.5 g ai/ha, after 20-22 days; read-out: % Control HORVS
Outline: as §10

[20] = system: wheat (Triticum aestivum); assay: Postemergence herbicidal activity in cereal crops; format: in vivo; conditions: Triticum aestivum, post-emergence, 480 h; crop, post-emergent, 17.5 g ai/ha, after 20-22 days; read-out: % Control TRZAS
Outline: as §10

[21] = Table 6, applied alone, 35 g ai/ha
[22] = Table 7, applied alone, 35 g ai/ha
[23] = Table 7, applied alone, 70 g ai/ha

| melting point | Compound | % Control HORVW Ob [1, 21] | % Control HORVW Ob [1, 22] | % Control HORVW Ob [1, 23] | % Control MATCH Ob [2, 21] | % Control MATCH Ob [2, 22] | % Control MATCH Ob [2, 23] | % Control TRZAS Ob [3, 21] | % Control TRZAS Ob [3, 22] | % Control TRZAS Ob [3, 23] | pest or weed control at 140 g/ha [4] | pest or weed control at 140 g/ha [5] | pest or weed control at 140 g/ha [6] | pest or weed control at 140 g/ha [7] | pest or weed control at 140 g/ha [8] | pest or weed control at 140 g/ha [9] | further results |
| --- | --- | --- | --- | --- | --- | --- | --- | --- | --- | --- | --- | --- | --- | --- | --- | --- | --- |
| 167 to 168 °C | COc1c(C)cc(F)c(-c2cc(N)c(Cl)c(C(=O)O)n2)c1F [Compound 93, 4-Amino-3-chloro-6-(2,6-difluoro-3-methoxy-4-methylphenyl)pyridine-2-carboxylic acid] | 10% | – | – | 45% | – | – | 15% | – | – | 100% | 100% | 100% | 100% | 100% | 100% | – |
| 176 to 177 °C | COc1c(Br)ccc(-c2cc(N)c(Cl)c(C(=O)O)n2)c1F [Compound 120, 4-Amino-6-(4-bromo-2-fluoro-3-methoxyphenyl)-3-chloropyridine-2-carboxylic acid] | – | – | – | – | – | – | – | – | – | 95% | 90% | 100% | – | – | – | pest or weed control at 35 g/ha [10]: 100%; pest or weed control at 35 g/ha [11]: 40%; pest or weed control at 35 g/ha [12]: 100%; pest or weed control at 35 g/ha [13]: 95%; pest or weed control at 35 g/ha [14]: 0%; pest or weed control at 17.5 g/ha [15]: 80%; pest or weed control at 17.5 g/ha [16]: 95%; pest or weed control at 17.5 g/ha [17]: 95%; pest or weed control at 17.5 g/ha [18]: 50%; pest or weed control at 17.5 g/ha [19]: 0%; plant injury at 17.5 g/ha [20]: 0% |

Continued, compound first:

| Compound | melting point | % Control HORVW Ob [1, 21] | % Control HORVW Ob [1, 22] | % Control HORVW Ob [1, 23] | % Control MATCH Ob [2, 21] | % Control MATCH Ob [2, 22] | % Control MATCH Ob [2, 23] | % Control TRZAS Ob [3, 21] | % Control TRZAS Ob [3, 22] | % Control TRZAS Ob [3, 23] | pest or weed control at 140 g/ha [4] | pest or weed control at 140 g/ha [5] | pest or weed control at 140 g/ha [6] | pest or weed control at 140 g/ha [7] | pest or weed control at 140 g/ha [8] | pest or weed control at 140 g/ha [9] | further results |
| --- | --- | --- | --- | --- | --- | --- | --- | --- | --- | --- | --- | --- | --- | --- | --- | --- | --- |
| NCCO.O=C(O)c1nc(Cl)ccc1Cl [Clopyralid MEA, clopyralid monoethanolamine (MEA) salt] | – | 0% | 0% | 0% | 20% | 5% | 40% | 0% | 0% | 0% | – | – | – | – | – | – | – |
| COC(=O)c1nc(-c2ccc(F)c(OC)c2Cl)cc(N)c1Cl [Compound 74, 4-Amino-3-chloro-6-(2-chloro-4-fluoro-3-methoxyphenyl)pyridine-2-carboxylic acid, methyl ester] | 145 to 146 °C | 0% | – | – | 10% | – | – | 25% | – | – | 100% | 90% | 100% | 95% | 95% | 100% | – |
| CCCCCCC(C)OC(=O)COc1nc(F)c(Cl)c(N)c1Cl (centres unmarked) [Fluroxypyr MHE, fluroxypyr methylheptyl ester] | – | 0% | 0% | 0% | 0% | 0% | 0% | 0% | 0% | 0% | – | – | – | – | – | – | – |

Source: patent US20070179060A1, “6-(Poly-substituted aryl)-4-aminopicolinates and their use as herbicides” (priority 2006, published 2007)
